tested on: HCV 1b-377-neo replicon cells; test: HCV Replicon assay, HCV 1b-377-neo replicon cells; type: cell-based, HCV 1b genotype; conditions: Hepatitis C virus, Table 2, read-out: Range (EC50 against HCV 1b)
Description: An HCV Replicon assay was utilized in the present disclosure, and was prepared, conducted and validated as described in commonly owned PCT/US2006/022197 and in O'Boyle et. al. Antimicrob Agents Chemother. 2005 April; 49(4):1346-53.
HCV 1b-377-neo replicon cells were used to test the currently described compound series as well as cells resistant to compound A due to a Y2065H mutation in NS5A (described in application PCT/US2006/022197). The compounds tested were determined to have more than 10-fold less inhibitory activity on cells resistant to compound A than wild-type cells indicating a related mechanism of action between the two compound series. Thus, the compounds of the present disclosure can be effective to inhibit the function of the HCV NS5A protein and are understood to be as effective in combinations as previously described in application PCT/US2006/022197 and commonly owned WO/O4014852. Further, the compounds of the present disclosure can be effective against the HCV 1b genotype. It should also be understood that the compounds of the present disclosure can inhibit multiple genotypes of HCV. […] In one embodiment compounds of the present disclosure are active against the 1a, 1b, 2a, 2b, 3a, 4a, and 5a genotypes.

Q: With `COC(=O)N[C@@H](C(=O)N1CCC[C@H]1c1ncc(-c2ccc(-c3ncc(-c4cnc([C@@H]5CCCN5C(=O)Cc5cccnc5)[nH]4)cn3)cc2)[nH]1)c1ccccc1` [Example 152j-3, methyl ((1R)-2-oxo-1-phenyl-2-((2S)-2-(5-(4-(5-(2-((2S)-1-(3-pyridinylacetyl)-2-pyrrolidinyl)-1H-imidazol-5-yl)-2-pyrimidinyl)phenyl)-1H-imidazol-2-yl)-1-pyrrolidinyl)ethyl)car bamate] as the molecule, how does the EC50 read?
A: Its EC50 is 0.001 to 0.999 nM.

Q: With `COC(=O)N[C@@H](C(=O)N1CCC[C@H]1c1ncc(-c2ccc(-c3ccc(-c4cnc([C@@H]5CCCN5C(=O)[C@H](NC(=O)OC)c5ccccc5)[nH]4)cc3CN(C)C)cc2)[nH]1)c1ccccc1` [Example M121, dimethyl((2-((dimethylamino)methyl)-4,4′-biphenyldiyl)bis(1H-imidazole-5,2-diyl(2S)-2,1-pyrrolidinediyl((1R)-2-oxo-1-phenyl-2,1-ethanediyl)))biscarbamate] as the molecule, how does the EC50 read?
A: Its EC50 is 100 to 999 nM.

Q: Which EC50 does the source give for `COC(=O)N[C@H](C(=O)N[C@H](c1ncc(-c2ccc(-c3ccc(-c4cnc([C@@H]5CCCN5C(=O)[C@@H](NC(=O)OC)C(C)C)[nH]4)cc3)cc2)[nH]1)C(C)OCc1ccccc1)C(C)C` (some centres unmarked) [Example R34] here?
A: Its EC50 is 0.001 to 0.999 nM.

Q: For `COC(=O)N[C@@H](C(=O)N1CCC[C@H]1c1ncc(-c2ccc(-c3ccc(-c4cnc([C@@H]5CCCN5C(=O)N5CCOCC5)[nH]4)cn3)cc2)[nH]1)c1ccccc1` [Example 144, methyl((1R)-2-((2S)-2-(5-(4-(5-(2-((2S)-1-(4-morpholinylcarbonyl)-2-pyrrolidinyl)-1H-imidazol-5-yl)-2-pyridinyl)phenyl)-1H-imidazol-2-yl)-1-pyrrolidinyl)-2-oxo-1-phenylethyl)carbamate], which EC50 is on record?
A: The EC50 was 0.001 to 0.999 nM.

Q: For `COC(=O)N[C@@H](C(=O)N1CCC[C@H]1c1ncc(-c2ccc(-c3ccc(-c4cnc([C@@H]5CCCN5C(=O)[C@H](NC(=O)OC)c5ccccc5)[nH]4)nn3)cc2)[nH]1)c1ccccc1` [Example 152j-10, methyl ((1R)-2-((2S)-2-(5-(6-(4-(2-((2S)-1-((2R)-2-((methoxycarbonyl)amino)-2-phenylacetyl)-2-pyrrolidinyl)-1H-imidazol-5-yl)phenyl)-3-pyridazinyl)-1H-imidazol-2-yl)-1-pyrrolidinyl)-2-oxo-1-phenylethyl)carbamate], which EC50 is on record?
A: Its EC50 is 1 to 99 nM.

Q: How did the EC50 turn out when `COC(=O)N[C@@H](C(=O)N[C@@H](C)c1ncc(-c2ccc(-c3ccc(-c4cnc([C@@H]5CCCN5C(=O)[C@H](NC(=O)OC)c5ccccc5)[nH]4)cc3)nc2)[nH]1)c1ccccc1` [Example 152j-22, methyl ((1R)-2-((2S)-2-(5-(4-(5-(2-((1S)-1-(((2R)-2-((methoxycarbonyl)amino)-2-phenylace-tyl)amino)eth-yl)-1H-imidazol-5-yl)-2-pyridinyl)phenyl)-1H-imidazol-2-yl)-1-pyrrolidinyl)-2-oxo-1-phenylethyl)carbamate] was run?
A: The EC50 was 0.001 to 0.999 nM.

Q: Which EC50 does the source give for `COC(=O)N[C@H](C(=O)N1CCC[C@H]1c1ncc(-c2ccc(-c3ccc(-c4cnc([C@@H]5CCCN5C(=O)[C@@H](NC(=O)OC)C(C)C)[nH]4)cc3C(=O)O)cc2)[nH]1)C(C)C` [Example M114, 4,4′-bis(2-((2S)-1-(N-(methoxycarbonyl)-L-valyl)-2-pyrrolidinyl)-1H-imidazol-5-yl)-2-biphenylcarboxylic acid] here?
A: Its EC50 is 1000 to 10000 nM.

Q: With `COC(=O)N[C@@H](C(=O)N1CCC[C@H]1c1ncc(-c2ccc(-c3cnc(-c4cnc([C@@H]5CCCN5C(=O)[C@H](NC(=O)OC)c5ccccc5)[nH]4)cn3)cc2)[nH]1)c1ccccc1` [Example 152j-8, methyl ((1R)-2-((2S)-2-(5-(5-(4-(2-((2S)-1-((2R)-2-((methoxycarbonyl)amino)-2-phenylacetyl)-2-pyrrolidinyl)-1H-imidazol-5-yl)phenyl)-2-pyrazinyl)-1H-imidazol-2-yl)-1-pyrrolidinyl)-2-oxo-1-phenylethyl)carbamate] as the molecule, how does the EC50 read?
A: The EC50 was 0.001 to 0.999 nM.

Q: `COC(=O)N[C@H](C(=O)N1CCC[C@H]1c1nc(-c2cnc(-c3ccc(-c4cnc([C@@H]5CCCN5C(=O)[C@@H](NC(=O)OC)C5CC5)[nH]4)cc3)nc2)c[nH]1)C1CC1` [Example D75, methyl ((1S)-1-cyclopropyl-2-((2S)-2-(5-(2-(4-(2-((2S)-1-((2S)-2-cyclopropyl-2-((methoxycarbonyl)amino)acetyl)-2-pyrrolidinyl)-1H-imidazol-5-yl)phenyl)-5-pyrimidinyl)-1H-imidazol-2-yl)-1-pyrrolidinyl)-2-oxoethyl)carbamate] was tested. Which EC50 did it give?
A: The EC50 was 0.001 to 0.999 nM.

Q: With `COC(=O)N[C@@H](C)C(=O)N1CCC[C@H]1c1nc(-c2cnc(-c3ccc(-c4cnc([C@@H]5CCCN5C(=O)[C@H](C)NC(=O)OC)[nH]4)cc3)nc2)c[nH]1` [Example D73, methyl ((1S)-2-((2S)-2-(5-(4-(5-(2-((2S)-1-(N-(methoxycarbonyl)-L-alanyl)-2-pyrrolidinyl)-1H-imidazol-5-yl)-2-pyrimi-dinyl)phenyl)-1H-imidazol-2-yl)-1-pyrrolidinyl)-1-methyl-2-oxoethyl)carbamate] as the molecule, how does the EC50 read?
A: The EC50 was 0.001 to 0.999 nM.

Q: `COC(=O)N[C@@H](C)C(=O)N1CCC[C@H]1c1ncc(-c2cnc(-c3ccc(-c4[nH]c([C@@H]5CCCN5C(=O)[C@H](C)NC(=O)OC)nc4C(F)(F)F)cc3)nc2)[nH]1` [Example J50, methyl ((1S)-2-((2S)-2-(5-(4-(5-(2-((2S)-1-(N-(methoxycarbonyl)-L-alanyl)-2-pyrrolidinyl)-1H-imidazol-5-yl)-2-pyrimidinyl)phenyl)-4-(trifluoromethyl)-1H-imidazol-2-yl)-1-pyrrolidinyl)-1-methyl-2-oxoethyl)carbamate] was tested. Which EC50 did it give?
A: Its EC50 is 0.001 to 0.999 nM.

Q: For `COC(=O)NC(C(=O)Nc1ncc(-c2ccc(-c3ccc(-c4cnc([C@@H]5CCCN5C(O)[C@@H](NC(=O)OC)C(C)C)[nH]4)cc3)cc2)[nH]1)C(C)C` (some centres unmarked) [Example R36], which EC50 is on record?
A: The EC50 was 0.001 to 0.999 nM.

Q: Which EC50 does the source give for `CN(C)[C@@H](C(=O)N1CCC[C@H]1c1ncc(-c2cnc(-c3cnc(-c4cnc([C@@H]5CCCN5C(=O)[C@@H](c5ccccc5)N(C)C)[nH]4)cn3)cn2)[nH]1)c1ccccc1` [Example 153c-5, (1R,1′R)-2,2′-(2,2′-bipyrazine-5,5′-diylbis(1H-imidazole-5,2-diyl(2S)-2,1-pyrrolidinediyl))bis(N, N-dimethyl-2-oxo-1-phenylethanamine)] here?
A: Its EC50 is 1 to 99 nM.

Q: With `CCN(CC)[C@@H](C(=O)N1CCC[C@H]1c1ncc(-c2ccc(-c3ncc(-c4c[nH]c([C@@H]5CCCN5C(=O)[C@H](C)NC(=O)OC)n4)cn3)cc2)[nH]1)c1ccccc1` [Example D77, methyl ((1S)-2-((2S)-2-(5-(2-(4-(2-((2S)-1-((2R)-2-(diethylamino)-2-phenylacetyl)-2-pyrrolidinyl)-1H-imidazol-5-yl)phenyl)-5-pyrimidinyl)-1H-imidazol-2-yl)-1-pyrrolidinyl)-1-methyl-2-oxoethyl)carbamate] as the molecule, how does the EC50 read?
A: The EC50 was 0.001 to 0.999 nM.

Q: `COC(=O)N[C@@H](C(=O)N1CCC[C@H]1c1ncc(-c2ccc(-c3ccc(-c4cnc([C@@H]5CCCN5C(=O)[C@@H](c5ccccc5)N(C)C)[nH]4)cn3)cc2)[nH]1)c1ccccc1` [Example 140, methyl((1R)-2-((2S)-2-(5-(4-(5-(2-((2S)-1-((2R)-2-(dimethylamino)-2-phenylacetyl)-2-pyrrolidinyl)-1H-imidazol-5-yl)-2-pyridinyl)phenyl)-1H-imidazol-2-yl)-1-pyrrolidinyl)-2-oxo-1-phenylethyl)carbamate] was tested. Which EC50 did it give?
A: The EC50 was 0.001 to 0.999 nM.

Q: Which EC50 does the source give for `O=C([C@H](O)c1ccccc1)N1CCC[C@H]1c1ncc(-c2ccc(-c3ccc(-c4cnc([C@@H]5CCCN5C(=O)[C@H](O)c5ccccc5)[nH]4)cn3)cc2)[nH]1` [Example 133, (1R)-2-((2S)-2-(5-(6-(4-(2-((2S)-1-((2R)-2-hydroxy-2-phenylacetyl)-2-pyrrolidinyl)-1H-imidazol-5-yl)phenyl)-3-pyridinyl)-1H-imidazol-2-yl)-1-pyrrolidinyl)-2-oxo-1-phenylethanol] here?
A: The EC50 was 1 to 99 nM.

Q: For `COC(=O)N[C@H](C(=O)N1CCC[C@H]1c1nc(-c2cnc(-c3ccc(-c4cnc([C@@H]5CCCN5C(=O)[C@@H](NC(=O)OC)C(C)C)[nH]4)c(F)c3)nc2)c[nH]1)C(C)C` [Example D68, methyl ((1S)-1-(((2S)-2-(5-(2-fluoro-4-(5-(2-((2S)-1-((2S)-2-((methoxycarbonyl)amino)-3-methylbutanoyl)-2-pyrrolidinyl)-1H-imidazol-5-yl)-2-pyrimidinyl)phenyl)-1H-imidazol-2-yl)-1-pyrrolidinyl)carbonyl)-2-methylpropyl) carbamate], which EC50 is on record?
A: The EC50 was 0.001 to 0.999 nM.

Q: With `COC(=O)N[C@H](C(=O)N[C@H](c1ncc(-c2ccc(-c3ccc(-c4cnc([C@@H]5CCCN5C(=O)[C@@H](NC(=O)OC)C(C)C)[nH]4)cc3)cc2)[nH]1)[C@@H](C)O)C(C)C` [Example R29] as the molecule, how does the EC50 read?
A: The EC50 was 0.001 to 0.999 nM.

Q: With `COC(=O)N[C@@H](C(=O)N1CCC[C@H]1c1ncc(-c2ccc(-c3ccc(-c4cnc([C@@H]5CCCN5C(=O)Cc5cccnc5)[nH]4)cn3)cc2)[nH]1)c1ccccc1` [Example 143, methyl ((1R)-2-oxo-1-phenyl-2-((2S)-2-(5-(4-(5-(2-((2S)-1-(3-pyridinylacetyl)-2-pyrrolidinyl)-1H-imidazol-5-yl)-2-pyridinyl)phenyl)-1H-imidazol-2-yl)-1-pyrrolidinyl)ethyl)carbamate] as the molecule, how does the EC50 read?
A: The EC50 was 0.001 to 0.999 nM.

same assay, conditions: Table 2, read-out: Range (EC50 against HCV 1b)

Q: Which EC50 does the source give for `CC(C)[C@H](NC(=O)N(C)C)C(=O)O` [OL-2] here?
A: The EC50 was 0.001 to 0.999 nM.
